The kinase profiling compilation of Christmann-Franck et al. (2016)

How the values were obtained:
Assay in all cases: radiometric filter-binding kinase assay, Kinase HotSpot
Details in all cases: compound 0.5 µM; ATP 10 µM
CDC42BPA (human) = CDC42BPA (human) (UniProt Q5VT25)
ULK1 (human) = ULK1 (human) (UniProt O75385)
BTK (human) = BTK (human) (UniProt Q06187)
PKN2 (human) = PKN2 (human) (UniProt Q16513)
EGFR (human) = EGFR (human) (UniProt P00533)
GRK7 (human) = GRK7 (human) (UniProt Q8WTQ7)
PIM1 (human) = PIM1 (human) (UniProt P11309)
PAK4 (human) = PAK4 (human) (UniProt O96013)
RPS6KA3 KD1 KD2 (human) = RPS6KA3 KD1 KD2 (human) (UniProt P51812)
MATK (human) = MATK (human) (UniProt P42679)
ZAP70 (human) = ZAP70 (human) (UniProt P43403)
EPHA4 (human) = EPHA4 (human) (UniProt P54764)
MYLK (human) = MYLK (human) (UniProt Q15746)
CDK6 CCND1 (human) = CDK6 CCND1 (human) (UniProt Q00534+P24385)
MKNK2 (human) = MKNK2 (human) (UniProt Q9HBH9)
SRPK2 (human) = SRPK2 (human) (UniProt P78362)
CLK2 (human) = CLK2 (human) (UniProt P49760)
STK3 (human) = STK3 (human) (UniProt Q13188)
TAOK3 (human) = TAOK3 (human) (UniProt Q9H2K8)
MELK (human) = MELK (human) (UniProt Q14680)
GSG2 (human) = GSG2 (human) (UniProt Q8TF76)
KIT (human) = KIT (human) (UniProt P10721)
MAPK14 (human) = MAPK14 (human) (UniProt Q16539)
CHEK2 (human) = CHEK2 (human) (UniProt O96017)
CAMK2A (human) = CAMK2A (human) (UniProt Q9UQM7)
NLK (human) = NLK (human) (UniProt Q9UBE8)
PHKG2 (human) = PHKG2 (human) (UniProt P15735)
AXL (human) = AXL (human) (UniProt P30530)
AURKB (human) = AURKB (human) (UniProt Q96GD4)
NUAK2 (human) = NUAK2 (human) (UniProt Q9H093)
TXK (human) = TXK (human) (UniProt P42681)
RPS6KB2 (human) = RPS6KB2 (human) (UniProt Q9UBS0)
STK17A (human) = STK17A (human) (UniProt Q9UEE5)
DYRK2 (human) = DYRK2 (human) (UniProt Q92630)
CDK6 CCND3 (human) = CDK6 CCND3 (human) (UniProt P30281+Q00534)
PAK6 (human) = PAK6 (human) (UniProt Q9NQU5)
DMPK (human) = DMPK (human) (UniProt Q09013)
ALK (human) = ALK (human) (UniProt Q9UM73)
VRK1 (human) = VRK1 (human) (UniProt Q99986)
HIPK4 (human) = HIPK4 (human) (UniProt Q8NE63)

Chain of NUAK2 (human) (Q9H093 whole entry, looked up): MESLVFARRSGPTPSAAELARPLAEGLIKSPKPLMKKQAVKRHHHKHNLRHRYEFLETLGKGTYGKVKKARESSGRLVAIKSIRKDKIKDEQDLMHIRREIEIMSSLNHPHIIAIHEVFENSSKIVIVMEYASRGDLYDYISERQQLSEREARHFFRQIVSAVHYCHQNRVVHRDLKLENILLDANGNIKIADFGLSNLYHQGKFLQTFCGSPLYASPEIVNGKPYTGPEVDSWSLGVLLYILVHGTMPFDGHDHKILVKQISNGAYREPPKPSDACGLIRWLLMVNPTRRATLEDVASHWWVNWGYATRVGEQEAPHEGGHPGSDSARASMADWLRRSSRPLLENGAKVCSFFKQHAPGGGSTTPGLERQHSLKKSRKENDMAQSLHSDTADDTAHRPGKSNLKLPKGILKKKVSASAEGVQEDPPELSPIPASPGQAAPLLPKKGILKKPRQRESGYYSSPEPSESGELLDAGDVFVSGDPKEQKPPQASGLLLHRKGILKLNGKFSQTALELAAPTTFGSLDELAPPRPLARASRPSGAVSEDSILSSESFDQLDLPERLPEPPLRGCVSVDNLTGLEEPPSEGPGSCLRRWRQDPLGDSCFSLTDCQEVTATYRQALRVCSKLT
Chain of DYRK2 (human) (Q92630 whole entry, looked up): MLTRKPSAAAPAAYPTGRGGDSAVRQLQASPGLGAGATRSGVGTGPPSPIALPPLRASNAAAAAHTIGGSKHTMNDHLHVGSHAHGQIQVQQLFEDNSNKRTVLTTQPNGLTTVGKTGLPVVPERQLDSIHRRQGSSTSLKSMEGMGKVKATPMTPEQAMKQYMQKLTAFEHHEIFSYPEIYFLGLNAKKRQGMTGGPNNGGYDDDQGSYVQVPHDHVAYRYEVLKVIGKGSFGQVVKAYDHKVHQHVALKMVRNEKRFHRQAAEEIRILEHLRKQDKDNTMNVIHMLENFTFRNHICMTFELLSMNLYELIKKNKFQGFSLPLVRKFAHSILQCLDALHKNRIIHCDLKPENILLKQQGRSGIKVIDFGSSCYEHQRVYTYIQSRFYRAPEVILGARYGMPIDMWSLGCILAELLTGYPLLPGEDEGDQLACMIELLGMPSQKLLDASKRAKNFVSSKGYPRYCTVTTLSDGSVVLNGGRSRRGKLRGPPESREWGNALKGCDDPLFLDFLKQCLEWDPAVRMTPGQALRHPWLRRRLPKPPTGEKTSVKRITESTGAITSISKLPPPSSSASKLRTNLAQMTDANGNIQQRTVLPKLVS
Chain of NLK (human) (Q9UBE8 whole entry, looked up): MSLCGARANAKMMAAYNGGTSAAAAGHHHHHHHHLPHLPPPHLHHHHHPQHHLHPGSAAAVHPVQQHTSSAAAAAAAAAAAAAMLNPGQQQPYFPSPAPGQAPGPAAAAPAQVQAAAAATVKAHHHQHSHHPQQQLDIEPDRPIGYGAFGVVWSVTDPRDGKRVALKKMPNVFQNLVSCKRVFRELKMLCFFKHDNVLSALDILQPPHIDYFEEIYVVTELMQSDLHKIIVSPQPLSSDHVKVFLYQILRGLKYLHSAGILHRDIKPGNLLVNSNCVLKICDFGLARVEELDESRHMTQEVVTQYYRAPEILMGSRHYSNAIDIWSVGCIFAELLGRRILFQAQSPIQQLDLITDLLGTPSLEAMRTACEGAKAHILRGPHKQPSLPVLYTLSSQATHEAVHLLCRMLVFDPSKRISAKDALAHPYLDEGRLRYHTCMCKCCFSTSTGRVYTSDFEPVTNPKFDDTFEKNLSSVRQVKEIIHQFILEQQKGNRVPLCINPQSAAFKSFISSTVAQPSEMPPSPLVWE
Chain of TAOK3 (human) (Q9H2K8 whole entry, looked up): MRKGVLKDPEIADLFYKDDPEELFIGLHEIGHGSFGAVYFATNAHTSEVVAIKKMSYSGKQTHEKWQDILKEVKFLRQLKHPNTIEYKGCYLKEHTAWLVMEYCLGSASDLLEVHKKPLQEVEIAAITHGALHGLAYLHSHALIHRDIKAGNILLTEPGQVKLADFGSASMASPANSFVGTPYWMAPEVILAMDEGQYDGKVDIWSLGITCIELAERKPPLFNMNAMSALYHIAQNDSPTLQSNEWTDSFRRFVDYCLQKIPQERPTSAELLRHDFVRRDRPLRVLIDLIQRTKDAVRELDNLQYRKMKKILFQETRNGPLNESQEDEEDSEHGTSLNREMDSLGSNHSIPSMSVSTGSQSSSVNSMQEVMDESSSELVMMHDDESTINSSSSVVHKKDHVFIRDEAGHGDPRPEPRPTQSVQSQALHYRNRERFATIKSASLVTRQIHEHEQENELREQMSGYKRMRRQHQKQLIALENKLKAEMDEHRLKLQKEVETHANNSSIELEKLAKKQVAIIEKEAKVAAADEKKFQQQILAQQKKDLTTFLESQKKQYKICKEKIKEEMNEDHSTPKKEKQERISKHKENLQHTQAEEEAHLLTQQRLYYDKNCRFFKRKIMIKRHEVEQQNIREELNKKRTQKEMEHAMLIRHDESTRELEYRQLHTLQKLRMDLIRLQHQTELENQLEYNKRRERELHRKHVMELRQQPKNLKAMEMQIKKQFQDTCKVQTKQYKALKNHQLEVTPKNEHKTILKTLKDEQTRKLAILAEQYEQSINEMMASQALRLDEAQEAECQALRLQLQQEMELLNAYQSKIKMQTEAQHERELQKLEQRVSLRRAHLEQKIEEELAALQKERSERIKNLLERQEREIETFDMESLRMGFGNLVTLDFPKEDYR
Chain of MYLK (human) (Q15746 whole entry, looked up): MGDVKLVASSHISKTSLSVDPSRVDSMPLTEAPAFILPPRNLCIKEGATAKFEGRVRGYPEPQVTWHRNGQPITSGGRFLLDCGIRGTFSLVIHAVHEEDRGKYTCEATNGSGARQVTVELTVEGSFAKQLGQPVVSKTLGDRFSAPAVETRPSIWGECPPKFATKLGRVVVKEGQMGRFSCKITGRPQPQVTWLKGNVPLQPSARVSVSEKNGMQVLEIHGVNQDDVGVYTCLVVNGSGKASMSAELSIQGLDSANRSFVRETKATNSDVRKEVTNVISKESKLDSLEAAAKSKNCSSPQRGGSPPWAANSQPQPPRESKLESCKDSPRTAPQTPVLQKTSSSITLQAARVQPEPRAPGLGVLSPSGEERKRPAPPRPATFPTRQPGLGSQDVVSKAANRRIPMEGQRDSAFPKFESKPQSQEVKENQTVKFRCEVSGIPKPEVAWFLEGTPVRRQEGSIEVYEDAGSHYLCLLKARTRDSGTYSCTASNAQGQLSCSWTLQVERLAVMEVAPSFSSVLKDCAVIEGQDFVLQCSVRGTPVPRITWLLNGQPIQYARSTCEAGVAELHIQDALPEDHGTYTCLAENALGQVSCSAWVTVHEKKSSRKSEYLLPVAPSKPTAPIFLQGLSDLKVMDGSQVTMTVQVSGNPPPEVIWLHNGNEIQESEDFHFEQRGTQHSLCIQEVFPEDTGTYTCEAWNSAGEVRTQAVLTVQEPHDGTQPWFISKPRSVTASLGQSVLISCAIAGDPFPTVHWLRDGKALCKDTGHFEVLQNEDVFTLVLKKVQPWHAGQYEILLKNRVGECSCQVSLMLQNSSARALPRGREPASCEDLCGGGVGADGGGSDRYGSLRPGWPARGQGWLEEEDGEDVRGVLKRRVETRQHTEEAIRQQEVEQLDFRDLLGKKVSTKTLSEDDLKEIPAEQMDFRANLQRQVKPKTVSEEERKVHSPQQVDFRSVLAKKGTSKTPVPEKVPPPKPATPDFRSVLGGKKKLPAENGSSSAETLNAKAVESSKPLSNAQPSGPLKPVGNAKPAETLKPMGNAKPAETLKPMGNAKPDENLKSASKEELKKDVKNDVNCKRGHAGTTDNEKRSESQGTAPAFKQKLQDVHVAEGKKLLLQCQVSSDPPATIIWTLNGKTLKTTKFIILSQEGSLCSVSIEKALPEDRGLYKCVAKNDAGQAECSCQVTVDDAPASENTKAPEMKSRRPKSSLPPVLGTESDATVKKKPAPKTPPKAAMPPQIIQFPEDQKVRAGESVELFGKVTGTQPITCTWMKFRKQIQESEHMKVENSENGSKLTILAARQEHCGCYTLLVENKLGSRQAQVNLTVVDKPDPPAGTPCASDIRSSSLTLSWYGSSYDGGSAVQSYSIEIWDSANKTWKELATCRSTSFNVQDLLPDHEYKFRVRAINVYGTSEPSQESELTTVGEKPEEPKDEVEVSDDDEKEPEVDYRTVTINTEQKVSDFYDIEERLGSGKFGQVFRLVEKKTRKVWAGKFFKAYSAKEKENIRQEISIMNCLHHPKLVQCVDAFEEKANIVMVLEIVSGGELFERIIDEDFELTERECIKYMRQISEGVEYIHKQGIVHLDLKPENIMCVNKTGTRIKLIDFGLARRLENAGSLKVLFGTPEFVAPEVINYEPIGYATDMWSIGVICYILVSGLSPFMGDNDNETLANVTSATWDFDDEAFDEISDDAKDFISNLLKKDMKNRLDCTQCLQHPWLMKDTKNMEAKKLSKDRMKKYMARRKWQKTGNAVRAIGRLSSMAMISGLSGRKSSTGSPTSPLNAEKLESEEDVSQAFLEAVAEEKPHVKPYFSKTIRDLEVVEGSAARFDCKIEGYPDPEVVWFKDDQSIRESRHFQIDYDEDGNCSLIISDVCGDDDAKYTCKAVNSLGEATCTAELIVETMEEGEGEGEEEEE
Chain of CLK2 (human) (P49760 whole entry, looked up): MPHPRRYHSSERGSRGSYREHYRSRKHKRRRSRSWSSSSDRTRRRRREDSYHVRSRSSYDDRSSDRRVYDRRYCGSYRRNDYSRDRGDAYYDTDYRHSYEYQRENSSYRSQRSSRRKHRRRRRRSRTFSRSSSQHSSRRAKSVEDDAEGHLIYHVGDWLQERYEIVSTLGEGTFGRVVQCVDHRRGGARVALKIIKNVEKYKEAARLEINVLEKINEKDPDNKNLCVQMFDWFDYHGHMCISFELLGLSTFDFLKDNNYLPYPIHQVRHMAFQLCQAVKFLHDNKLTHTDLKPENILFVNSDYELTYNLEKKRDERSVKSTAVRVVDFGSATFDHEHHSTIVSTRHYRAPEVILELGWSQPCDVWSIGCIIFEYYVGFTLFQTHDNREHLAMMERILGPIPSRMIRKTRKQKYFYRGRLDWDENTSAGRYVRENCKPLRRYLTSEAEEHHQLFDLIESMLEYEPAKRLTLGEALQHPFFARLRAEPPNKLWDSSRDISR

Row | Compound | residual activity (CDC42BPA (human)) [%] | residual activity (ULK1 (human)) [%] | residual activity (BTK (human)) [%] | residual activity (PKN2 (human)) [%] | residual activity (EGFR (human)) [%] | residual activity (GRK7 (human)) [%] | residual activity (PIM1 (human)) [%] | residual activity (PAK4 (human)) [%] | residual activity (RPS6KA3 KD1 KD2 (human)) [%] | residual activity (MATK (human)) [%] | residual activity (ZAP70 (human)) [%] | residual activity (EPHA4 (human)) [%] | residual activity (MYLK (human)) [%] | residual activity (CDK6 CCND1 (human)) [%] | residual activity (MKNK2 (human)) [%] | residual activity (SRPK2 (human)) [%] | residual activity (CLK2 (human)) [%] | residual activity (STK3 (human)) [%] | residual activity (TAOK3 (human)) [%] | residual activity (MELK (human)) [%] | other results
1 | Nc1ccc2ncnc(NCCc3ccc(Oc4ccccc4)cc3)c2c1 | 102 | 105 | 96.8 | 89.7 | 112 | 104 | 102 | 105 | 101 | 89.6 | 93.2 | 98.5 | 98.5 | 101 | 104 | 95.3 | 83 | 105 | 102 | 96.8 | residual activity (GSG2 (human)): 96.9%; residual activity (KIT (human)): 99.7%; residual activity (MAPK14 (human)): 95.7%; residual activity (CHEK2 (human)): 91.7%; residual activity (CAMK2A (human)): 71.3%; residual activity (NLK (human)): 104%; residual activity (PHKG2 (human)): 98.7%; residual activity (AXL (human)): 96.1%; residual activity (AURKB (human)): 99.1%; residual activity (NUAK2 (human)): 112%; residual activity (TXK (human)): 102%; residual activity (RPS6KB2 (human)): 99.2%; residual activity (STK17A (human)): 96.9%; residual activity (DYRK2 (human)): 89.6%; residual activity (CDK6 CCND3 (human)): 100%; residual activity (PAK6 (human)): 105%; residual activity (DMPK (human)): 94.2%; residual activity (ALK (human)): 108%; residual activity (VRK1 (human)): 99.5%; residual activity (HIPK4 (human)): 97.4%
2 | CCCC(=O)Oc1ccc2[nH]c(C(=O)c3cc4ccccc4[nH]3)cc2c1 | 98 | 103 | 88.2 | 100 | 95.2 | 105 | 100 | 87.4 | 97.5 | 93.4 | 100 | 99.3 | 102 | 92.7 | 105 | 89.4 | 94.3 | 87 | 86.7 | 96.4 | residual activity (GSG2 (human)): 99.2%; residual activity (KIT (human)): 82.4%; residual activity (MAPK14 (human)): 102%; residual activity (CHEK2 (human)): 99%; residual activity (CAMK2A (human)): 87%; residual activity (NLK (human)): 106%; residual activity (PHKG2 (human)): 117%; residual activity (AXL (human)): 103%; residual activity (AURKB (human)): 97.1%; residual activity (NUAK2 (human)): 73.4%; residual activity (TXK (human)): 99.1%; residual activity (RPS6KB2 (human)): 102%; residual activity (STK17A (human)): 90.9%; residual activity (DYRK2 (human)): 91.8%; residual activity (CDK6 CCND3 (human)): 92.5%; residual activity (PAK6 (human)): 94.5%; residual activity (DMPK (human)): 94.4%; residual activity (ALK (human)): 83.7%; residual activity (VRK1 (human)): 85.9%; residual activity (HIPK4 (human)): 86.3%
3 | O=C1NC(=O)c2c1c1c3ccccc3n3c1c1c2c2ccccc2n1C1CCC3O1 | 84 | 73.1 | 43.3 | 15.9 | 78.3 | 53.4 | 0.435 | 75.3 | 2.35 | 91.7 | 88.4 | 91.4 | 4.01 | 6.06 | 9.71 | 107 | 52.1 | 3.22 | 24.5 | 7.13 | residual activity (GSG2 (human)): 18.5%; residual activity (KIT (human)): 60.8%; residual activity (MAPK14 (human)): 102%; residual activity (CHEK2 (human)): 13%; residual activity (CAMK2A (human)): 2.84%; residual activity (NLK (human)): 74.1%; residual activity (PHKG2 (human)): 75.6%; residual activity (AXL (human)): 38.1%; residual activity (AURKB (human)): 9.52%; residual activity (NUAK2 (human)): 52%; residual activity (TXK (human)): 22.7%; residual activity (RPS6KB2 (human)): 35%; residual activity (STK17A (human)): 8.65%; residual activity (DYRK2 (human)): 5.94%; residual activity (CDK6 CCND3 (human)): 19.9%; residual activity (PAK6 (human)): 85.4%; residual activity (DMPK (human)): 98.8%; residual activity (ALK (human)): 36.9%; residual activity (VRK1 (human)): 90.2%; residual activity (HIPK4 (human)): 29.1%
4 | O=C1Nc2ccc(Cl)cc2/C1=C/c1cc(Cl)c(O)c(Cl)c1 | 96.1 | 95 | 92.1 | 114 | 93.5 | 97.3 | 19.4 | 88.7 | 96 | 82.2 | 95 | 93.1 | 62.3 | 97 | 88.7 | 95.2 | 95.5 | 31.6 | 50.6 | 83.6 | residual activity (GSG2 (human)): 8.65%; residual activity (KIT (human)): 35%; residual activity (MAPK14 (human)): 74.6%; residual activity (CHEK2 (human)): 70.2%; residual activity (CAMK2A (human)): 92.9%; residual activity (NLK (human)): 38.9%; residual activity (PHKG2 (human)): 98.4%; residual activity (AXL (human)): 106%; residual activity (AURKB (human)): 9.19%; residual activity (NUAK2 (human)): 78.7%; residual activity (TXK (human)): 86.6%; residual activity (RPS6KB2 (human)): 98.2%; residual activity (STK17A (human)): 78.9%; residual activity (DYRK2 (human)): 94%; residual activity (CDK6 CCND3 (human)): 94.1%; residual activity (PAK6 (human)): 97%; residual activity (DMPK (human)): 112%; residual activity (ALK (human)): 65.8%; residual activity (VRK1 (human)): 80.6%; residual activity (HIPK4 (human)): 88.4%
5 | CNc1cc2c(Nc3cccc(Br)c3)ncnc2cn1 | 95.2 | 98.8 | 94.7 | 102 | 1.99 | 83.8 | 66.2 | 93 | 86.6 | 88 | 99.1 | 94.2 | 79.5 | 82.2 | 32.3 | 89.4 | 88.3 | 99.9 | 94 | 91.6 | residual activity (GSG2 (human)): 91.8%; residual activity (KIT (human)): 86.4%; residual activity (MAPK14 (human)): 90%; residual activity (CHEK2 (human)): 85.7%; residual activity (CAMK2A (human)): 105%; residual activity (NLK (human)): 84.3%; residual activity (PHKG2 (human)): 113%; residual activity (AXL (human)): 98.6%; residual activity (AURKB (human)): 76.3%; residual activity (NUAK2 (human)): 85%; residual activity (TXK (human)): 79.9%; residual activity (RPS6KB2 (human)): 99.8%; residual activity (STK17A (human)): 98.4%; residual activity (DYRK2 (human)): 89.9%; residual activity (CDK6 CCND3 (human)): 90.8%; residual activity (PAK6 (human)): 96.6%; residual activity (DMPK (human)): 112%; residual activity (ALK (human)): 82%; residual activity (VRK1 (human)): 90.2%; residual activity (HIPK4 (human)): 82.8%
